In patent US11464802B2, “3-substituted piperidine compounds for Cbl-b inhibition, and use thereof” (Nurix Therapeutics, Inc., priority 2019, dated 2022) one finds IC50 and fold induction data, which are given here for ten compounds.

Molecules are shown by their SMILES. pIC50: −log10 of the molar value. Where two headings read alike, the source gives them in different places.

For one assay, the target named is Cbl-b (Homo sapiens (Human), UniProt Q13191). Put plainly: Cbl-b displacement assay (Cbl-b inhibition assay), TR-FRET probe displacement, Biological Example 1. It is filed as binding. The protocol: Candidate compounds were evaluated for their ability to bind and inhibit Cbl-b, an E3 ubiquitin-protein ligase, as evidenced by their ability to displace a fluorophore-labeled probe (Example 46) bound to Cbl-b.
Chain of Cbl-b (Q13191 36-427): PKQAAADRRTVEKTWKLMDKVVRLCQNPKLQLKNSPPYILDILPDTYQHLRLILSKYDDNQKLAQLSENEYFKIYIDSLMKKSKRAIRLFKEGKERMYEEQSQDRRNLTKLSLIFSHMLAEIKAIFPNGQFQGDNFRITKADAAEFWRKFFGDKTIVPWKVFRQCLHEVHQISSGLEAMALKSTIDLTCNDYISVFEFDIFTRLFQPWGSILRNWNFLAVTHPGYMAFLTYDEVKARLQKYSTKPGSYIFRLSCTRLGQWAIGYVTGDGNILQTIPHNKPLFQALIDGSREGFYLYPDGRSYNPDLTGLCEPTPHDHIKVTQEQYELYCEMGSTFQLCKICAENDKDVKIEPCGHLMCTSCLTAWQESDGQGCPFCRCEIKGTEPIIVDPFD
The ability of candidate compounds to displace a known inhibitor and thereby inhibit Cbl-b activity was measured by monitoring the interaction of Cbl-b with a fluorophore-labeled probe in the presence of the candidate compound. A truncated variant of Cbl-b (UniProt number Q13191; SEQ ID NO:1) containing an Avitag at its N-terminus was co-expressed with BirA biotin ligase and purified using a standard protocol (see Dou et al., Nature Structural and Molecular Biology 8: 982-987, 2013; Avidity LLC).
Fluorescently-labeled inhibitor probe was synthesized and tagged with BODIPY FL (Example 46). Cbl-b displacement assays were performed in a 384-well plate at room temperature in a 10 μL reaction volume by pre-incubating 0.5 nM Cbl-b or 0.125 nM Cbl-b (final concentration, indicated as “High” and “Low”, respectively) in an assay buffer containing 20 mM HEPES pH 7.5, 150 mM NaCl, 0.01% Triton X-100, 0.01% BSA, and 0.5 mM TCEP in the presence of a candidate compound in 1% DMSO (final concentration) for 1 hour. After incubation in the presence of the candidate compound, the plate was incubated for an additional 1 hour in the presence of an approximate EC40 binding saturation consisting of 150 nM fluorescently-labeled inhibitor probe and 2 nM Streptavidin-Terbium (Cisbio) (final concentrations). Following the 1 hour incubation, the plates were read for TR-FRET signal at 520/620 nM using an Envision plate reader (Perkin Elmer).

The subject of assay [1] is primary human total T-cells. In words: Primary human total T-cell activation: IL-2 secretion, Biological Example 2. It is filed as cell-based. The conditions noted are these: 48 hours, fold change over baseline; for fold induction at 0.3 µM: inhibitor 0.3 μM; for fold induction at 1 µM: inhibitor 1 μM; for fold induction at 3 µM: inhibitor 3 μM.
For assay [2], the system named is primary human total T-cells. In words: Primary human total T-cell activation: CD25 surface staining, Biological Example 2. Type of assay: cell-based. The conditions noted are these: 48 hours, fold change over baseline; for fold induction at 0.3 µM: inhibitor 0.3 μM; for fold induction at 1 µM: inhibitor 1 μM; for fold induction at 3 µM: inhibitor 3 μM.
[3] abbreviates: 0.125 nM Cbl-b final concentration (Low), read-out: Cbl-b activity IC50 (Low).
The mark [4] stands for this setting: anti-CD3/anti-CD28 co-stimulation.
[5] abbreviates: anti-CD3/anti-CD28 co-stimulation, read-out: IL-2 secretion CD3/CD28 1 μM.
Setting [6] is: anti-CD3 alone, read-out: IL-2 secretion CD3 1 μM.
Setting [7] is: anti-CD3/anti-CD28 co-stimulation, read-out: CD25 staining CD3/CD28 1 μM.
[8] abbreviates: anti-CD3 alone, read-out: CD25 staining CD3 1 μM.
Setting [9] is: 0.5 nM Cbl-b final concentration (High), read-out: Cbl-b activity IC50 (High).
[10] abbreviates: Cbl-b concentration (High or Low) not given, read-out: IC50 values in the Cbl-b inhibition assay of Biological Example 1.

For `Cn1cnnc1CC1(c2cccc(N3Cc4c(cc(CN5CCCC(C)(F)C5)cc4C(F)(F)F)C3=O)c2)COC1` (stereo in doubt) [Compound 6, (S)-6-((3-fluoro-3-methylpiperidin-1-yl)methyl)-2-(3-(3-((4-methyl-4H-1,2,4-triazol-3-yl)methyl)oxetan-3-yl)phenyl)-4-(trifluoromethyl)isoindolin-1-one], the pIC50 – broadly, the negative decadic logarithm of the IC50, by convention in mol/L – at Cbl-b (setting [3]) is 7.00 to 8.29. Besides, the fold induction at 0.3 µM was below 10 in assay [1] (setting [4]) and above 1.39 in assay [2] (setting [4]). Also, the fold induction at 1 µM in assay [1] (setting [5]) is above 15; in assay [1] (setting [6]), below 0.33; in assay [2] (setting [7]) it was above 1.39; in assay [2] (setting [8]), above 1.14. Further, the fold induction at 3 µM was 0.34 to 0.66 in assay [1] (anti-CD3 alone) and above 1.14 in assay [2] (anti-CD3 alone).

For the compound `Cn1cnnc1CC1(c2cccc(N3Cc4c(cc(CN5CCC(F)(F)[C@H](C#N)C5)cc4C(F)(F)F)C3=O)c2)COC1` [Compound 11, (S)-4,4-difluoro-1-((2-(3-(3-((4-methyl-4H-1,2,4-triazol-3-yl)methyl)oxetan-3-yl)phenyl)-3-oxo-7-(trifluoromethyl)isoindolin-5-yl)methyl)piperidine-3-carbonitrile], the pIC50 at Cbl-b (setting [9]) and on Cbl-b (setting [10]) was 8.30 to 9.00 each time. In addition, the fold induction at 0.3 µM in assay [1] (setting [4]) is below 10; in assay [2] (setting [4]), 1.25 to 1.39. The fold induction at 1 µM was 11 to 15 in assay [1] (setting [5]), below 0.33 in assay [1] (setting [6]), 1.25 to 1.39 in assay [2] (setting [7]) and below 1.04 in assay [2] (setting [8]). For the same compound, the fold induction at 3 µM in assay [1] (anti-CD3 alone) was below 0.33; in assay [2] (anti-CD3 alone), below 1.04.

`C[C@@H]1CN([C@@H](C)c2cc3c(c(C4CC4)n2)CN(c2cccc(C4(Cc5nncn5C)COC4)c2)C3=O)CCC1(F)F` [Compound 49, 4-cyclopropyl-6-((S)-1-((R)-4,4-difluoro-3-methylpiperidin-1-yl)ethyl)-2-(3-(3-((4-methyl-4H-1,2,4-triazol-3-yl)methyl)oxetan-3-yl)phenyl)-2,3-dihydro-1H-pyrrolo[3,4-c]pyridin-1-one]: on Cbl-b (setting [3]), the pIC50 is above 9.00. The fold induction at 0.3 µM was above 15 in assay [1] (setting [4]) and above 1.39 in assay [2] (setting [4]). In addition, the fold induction at 1 µM in assay [1] (setting [5]) was above 15; in assay [1] (setting [6]), above 0.66; in assay [2] (setting [7]), above 1.39; in assay [2] (setting [8]), above 1.14. Further, the values for the fold induction at 3 µM in assay [1] (anti-CD3 alone) and in assay [2] (anti-CD3 alone) were above 0.66 and above 1.14, respectively.

On to `CCNc1cc(C2(Cc3nncn3C)COC2)cc(N2Cc3c(cc(CN4CCC[C@H](C)C4)nc3C3CC3)C2=O)n1` [Compound 43, 4-cyclopropyl-2-[6-(ethylamino)-4-{3-[(4-methyl-1,2,4-triazol-3-yl)methyl]oxetan-3-yl}pyridin-2-yl]-6-{[(3S)-3-methylpiperidin-1-yl]methyl}-3H-pyrrolo[3,4-c]pyridin-1-one], for which, on Cbl-b (setting [3]), the pIC50 is 8.30 to 9.00. The fold induction at 0.3 µM was above 15 in assay [1] (setting [4]) and above 1.39 in assay [2] (setting [4]). Besides, the fold induction at 1 µM was above 15 in assay [1] (setting [5]), above 0.66 in assay [1] (setting [6]), above 1.39 in assay [2] (setting [7]) and above 1.14 in assay [2] (setting [8]). The fold induction at 3 µM in assay [1] (anti-CD3 alone) is above 0.66; in assay [2] (anti-CD3 alone) it was above 1.14.

Regarding `C[C@H]1CN(Cc2cc3c(c(C(F)(F)F)c2)CN(c2cccc(C4(Cc5nncn5C)COC4)c2)C3=O)CCC1(F)F` [Compound 9, (S)-6-((4,4-difluoro-3-methylpiperidin-1-yl)methyl)-2-(3-(3-((4-methyl-4H-1,2,4-triazol-3-yl)methyl)oxetan-3-yl)phenyl)-4-(trifluoromethyl)isoindolin-1-one], the negative-log IC50 (pIC50) on Cbl-b (setting [9]) is 7.00 to 8.29. Moreover, the fold induction at 0.3 µM in assay [1] (setting [4]) lay within 11 to 15; in assay [2] (setting [4]) it was 1.25 to 1.39. The fold induction at 1 µM was above 15 in assay [1] (setting [5]), 0.34 to 0.66 in assay [1] (setting [6]), above 1.39 in assay [2] (setting [7]) and above 1.14 in assay [2] (setting [8]). The fold induction at 3 µM is 0.34 to 0.66 in assay [1] (anti-CD3 alone) and above 1.14 in assay [2] (anti-CD3 alone).

As for `Cn1cnnc1CC1(c2cccc(N3Cc4c(cc(CN5CC(C(F)(F)F)C[C@H](C(F)(F)F)C5)cc4C(F)(F)F)C3=O)c2)COC1` (stereo partly drawn) [Compound 21, cis-6-{[3,5-bis(trifluoromethyl)piperidin-1-yl]methyl}-2-(3-{3-[(4-methyl-1,2,4-triazol-3-yl)methyl]oxetan-3-yl}phenyl)-4-(trifluoromethyl)-3H-isoindol-1-one], the negative logarithm of the IC50 (pIC50) on Cbl-b (setting [3]) and on Cbl-b (setting [10]) was 7.00 to 8.29 in each case. The fold induction at 0.3 µM was below 10 in assay [1] (setting [4]) and 1.25 to 1.39 in assay [2] (setting [4]). For the same compound, the fold induction at 1 µM in assay [1] (setting [5]) was below 10; in assay [1] (setting [6]), below 0.33; in assay [2] (setting [7]) it was 1.25 to 1.39; in assay [2] (setting [8]), below 1.04. Moreover, the fold induction at 3 µM was below 0.33 in assay [1] (anti-CD3 alone) and below 1.04 in assay [2] (anti-CD3 alone).

For the compound `Cn1cnnc1CC1(c2cccc(N3Cc4c(cc(CN5CCC[C@H](C#N)C5)cc4C(F)(F)F)C3=O)c2)COC1` [Compound 18, (S)-1-((2-(3-(3-((4-methyl-4H-1,2,4-triazol-3-yl)methyl)oxetan-3-yl)phenyl)-3-oxo-7-(trifluoromethyl)isoindolin-5-yl)methyl)piperidine-3-carbonitrile], the pIC50 on Cbl-b (setting [3]) was 8.30 to 9.00. The results for the fold induction at 0.3 µM in assay [1] (setting [4]) and in assay [2] (setting [4]) were below 10 and 1.25 to 1.39, respectively. The fold induction at 1 µM was 11 to 15 in assay [1] (setting [5]), below 0.33 in assay [1] (setting [6]), 1.25 to 1.39 in assay [2] (setting [7]) and above 1.14 in assay [2] (setting [8]). Moreover, the figures for the fold induction at 3 µM in assay [1] (anti-CD3 alone) and in assay [2] (anti-CD3 alone) were 0.34 to 0.66 and above 1.14, respectively.

Take `Cn1cnnc1CC1(c2cccc(N3Cc4c(cc(CN5CCCC(C)(F)C5)cc4C(F)(F)F)C3=O)c2)COC1` (stereo in doubt) [Compound 5, (R)-6-((3-fluoro-3-methylpiperidin-1-yl)methyl)-2-(3-(3-((4-methyl-4H-1,2,4-triazol-3-yl)methyl)oxetan-3-yl)phenyl)-4-(trifluoromethyl) isoindolin-1-one]: the pIC50 at Cbl-b (setting [3]) is 7.00 to 8.29. Besides, the fold induction at 0.3 µM in assay [1] (setting [4]) is 11 to 15; in assay [2] (setting [4]), above 1.39. Further, the fold induction at 1 µM was above 15 in assay [1] (setting [5]), below 0.33 in assay [1] (setting [6]), above 1.39 in assay [2] (setting [7]) and above 1.14 in assay [2] (setting [8]). Besides, the fold induction at 3 µM in assay [1] (anti-CD3 alone) is 0.34 to 0.66; in assay [2] (anti-CD3 alone), above 1.14.

For `C[C@@H]1CN(Cc2cc3c(c(C4CC4)n2)CN(c2cccc(C4(Cc5nncn5C(F)F)COC4)c2)C3=O)CCC1(F)F` [Compound 38, 4-cyclopropyl-6-{[(3R)-4,4-difluoro-3-methylpiperidin-1-yl]methyl}-2-[3-(3-{[4-(difluoromethyl)-1,2,4-triazol-3-yl]methyl}oxetan-3-yl)phenyl]-3H-pyrrolo[3,4-c]pyridin-1-one], the negative logarithm of the IC50 (pIC50) on Cbl-b (setting [3]) and at Cbl-b (setting [10]) was 8.30 to 9.00 in each case. Besides, the values for the fold induction at 0.3 µM in assay [1] (setting [4]) and in assay [2] (setting [4]) were above 15 and above 1.39, respectively. The fold induction at 1 µM in assay [1] (setting [5]) is above 15; in assay [1] (setting [6]), above 0.66; in assay [2] (setting [7]), above 1.39; in assay [2] (setting [8]), above 1.14. In addition, the fold induction at 3 µM was above 0.66 in assay [1] (anti-CD3 alone) and above 1.14 in assay [2] (anti-CD3 alone).

For the compound `C[C@H]1CCCN([C@@H](C)c2cc3c(c(C4CC4)n2)CN(c2cccc(C4(Cc5nncn5C)COC4)c2)C3=O)C1` [Compound 51, 4-cyclopropyl-2-(3-(3-((4-methyl-4H-1,2,4-triazol-3-yl)methyl)oxetan-3-yl)phenyl)-6-((S)-1-((S)-3-methylpiperidin-1-yl)ethyl)-2,3-dihydro-1H-pyrrolo[3,4-c]pyridin-1-one], the pIC50 at Cbl-b (setting [3]) is above 9.00. The figures for the fold induction at 0.3 µM in assay [1] (setting [4]) and in assay [2] (setting [4]) were above 15 and above 1.39, respectively. For the same compound, the fold induction at 1 µM in assay [1] (setting [5]) was above 15; in assay [1] (setting [6]), above 0.66; in assay [2] (setting [7]), above 1.39; in assay [2] (setting [8]), above 1.14. Moreover, the results for the fold induction at 3 µM in assay [1] (anti-CD3 alone) and in assay [2] (anti-CD3 alone) were above 0.66 and above 1.14, respectively.
